In patent EP2902382A1, “Primary hydroxylamines and uses thereof” (Fundació Institut de Recerca Biomèdica IRB (Barcelona), priority 2014, dated 2015):
Values after ≈ are worked out from the molar mass of the structure shown. Where a name gives a salt, the structure may show the parent alone. Read-outs that look alike come from different tables or passages of the source.

What was measured:
Pseudomonas aeruginosa = experiment: Minimum inhibitory concentration (MIC), microtiter broth dilution method; assay type: cell-based, Pseudomonas aeruginosa ATCC 15692 (CECT 4122); details: read-out: MIC (minimum inhibitory concentration)
Staphylococcus aureus = experiment: as above; assay type: cell-based, Staphylococcus aureus ATCC 12600 (CECT 86); details: read-out: MIC (minimum inhibitory concentration)
[1] = test system: murine macrophage J774 cell line; experiment: Cytotoxicity, MTT colorimetric cell viability assay; assay type: cell-based; details: Mus musculus, J774 macrophages, 24 and 48 h of exposure (time not given), read-out: Cytoxicity (IC50)
Bacillus anthracis = experiment: microbe, parasite or virus in culture; assay type: cell-based, Bacillus anthracis Sterne 7700 pXO1-/pXO2-; details: 9 h, read-out: MIC (minimum inhibitory concentration)
S. aureus = assay type: cell-based
P. aeruginosa = experiment: Capacity to inhibit the formation of bacterial biofilms; assay type: cell-based; details: 37°C for 48 h without agitation, viable count (cfu/ml), Fig. 1
Enterococcus faecalis = experiment: Minimum inhibitory concentration (MIC), microtiter broth dilution method; assay type: cell-based, Enterococcus faecalis ATCC 19433 (CECT 481); details: TSB broth, 37°C for 9 h, mean of triplicates
Staphylococcus epidermis = experiment: as above; assay type: cell-based, Staphylococcus epidermidis ATCC 1798 (CECT 231); details: TSB broth, 37°C for 9 h, mean of triplicates
[2] = TSB broth, 37°C for 9 h, mean of triplicates

Compound | MIC (Pseudomonas aeruginosa; 9 h) [µM] | MIC (Staphylococcus aureus; 9 h) [µM] | IC50 [1] [µM] | MIC (Bacillus anthracis) [µM] | MIC (Pseudomonas aeruginosa; [2]) [µM] | MIC (Staphylococcus aureus; [2]) [µM] | biofilm formation (S. aureus) | biofilm formation (P. aeruginosa) | MIC (Enterococcus faecalis) [µM] | MIC (Staphylococcus epidermis) [µM]
ONCc1ccccc1 [Comp 7, N-Benzyl-hydroxylamine hydrochloride, reference compound] | > 4000 | > 4000 | > 4000 | > 4000 |  |  |  |  |  | 
COc1cccc(OC)c1CNO [Comp 8, N-(2,6-Dimethoxybenzyl)-hydroxylamine, reference compound] |  |  |  | > 4000 | > 4000 | > 4000 |  |  |  | 
ONCCc1ccccc1 [Example 1, N-phenethyl-hydroxylamine] |  |  | 1890 | 250 to 500 (≈ 34.3 to 68.6 µg/mL) | 500 to 1000 (≈ 68.6 to 137 µg/mL) | 250 to 500 (≈ 34.3 to 68.6 µg/mL) | inhibit | inhibit | 1000 to 2000 (≈ 137 to 274 µg/mL) | 
ONCC1CCCCC1 [Example 2, N-cyclohexylmethyl-hydroxylamine] |  |  | 1330 | 250 to 500 (≈ 32.3 to 64.6 µg/mL) | 125 to 250 (≈ 16.2 to 32.3 µg/mL) | 250 to 500 (≈ 32.3 to 64.6 µg/mL) | inhibit | inhibit | 500 to 1000 (≈ 64.6 to 129 µg/mL) | 250 to 500 (≈ 32.3 to 64.6 µg/mL)
ONCc1ccc(F)cc1 [Example 3, N-(4-fluorobenzyl)-hydroxylamine] |  |  | 1300 | 125 to 625 (≈ 17.6 to 88.2 µg/mL) | 1000 to 2000 (≈ 141 to 282 µg/mL) | 500 to 1000 (≈ 70.6 to 141 µg/mL) | inhibit | inhibit | 500 to 1000 (≈ 70.6 to 141 µg/mL) | 125 to 250 (≈ 17.6 to 35.3 µg/mL)
COc1ccc(CNO)c(OC)c1 [Example 4, N-(2,4-dimethoxybenzyl)-hydroxylamine] |  |  | 2270 | 125 to 250 (≈ 22.9 to 45.8 µg/mL) | 1000 to 2000 (≈ 183 to 366 µg/mL) | 500 to 1000 (≈ 91.6 to 183 µg/mL) | inhibit | inhibit | 500 to 1000 (≈ 91.6 to 183 µg/mL) | 125 to 250 (≈ 22.9 to 45.8 µg/mL)
COc1ccc(CNO)c(C)c1 [Example 5, N-(4-methoxy-2-methylbenzyl)-hydroxylamine] |  |  | 2180 | 125 to 625 (≈ 20.9 to 105 µg/mL) | 1000 to 2000 (≈ 167 to 334 µg/mL) | > 4000 |  |  | 250 to 500 (≈ 41.8 to 83.6 µg/mL) | 250 to 500 (≈ 41.8 to 83.6 µg/mL)
ONCc1cc(C(F)(F)F)cc(C(F)(F)F)c1 [Example 6, N-(3,5-bis-trifluoromethylbenzyl)-hydroxylamine] |  |  | 2070 | 125 to 625 (≈ 32.4 to 162 µg/mL) | 1000 to 2000 (≈ 259 to 518 µg/mL) | 250 to 500 (≈ 64.8 to 130 µg/mL) |  |  | 500 to 1000 (≈ 130 to 259 µg/mL) | 125 to 250 (≈ 32.4 to 64.8 µg/mL)
